Results reported in patent US6972175B2, “Inhibition of Egr-1 expression by ppar-gamma agonists and related compositions and methods” (priority 2002, dated 2005).

Legend:
[1] = system: Egr-1 mRNA; assay: Egr-1 mRNA levels by Northern blotting in hypoxic mononuclear phagocytes; format: cell-based, rat; conditions: NR8383 cells, ligand added 6 hours before 30 minutes hypoxia; Northern blot, FIG. 1a
Experimental: Cell culture and induction of hypoxia. A rat alveolar macrophage cell line (NR8383) was obtained from the ATCC (Manassas, Va.), and cells were grown to 70% confluence in Ham's F-12K medium containing 15% heat-inactivated fetal bovine serum. Cells were made quiescent by serum starvation (0.2%, fetal bovine serum) for 24 hours. The PPAR-γ ligands were obtained from the following sources: troglitazone was provided by Sankyo Pharmaceutical Co. (Tokyo, Japan); and 15-d-PGJ2 was purchased from Cayman Chemical Co. (Ann Arbor, Mich.). The PPAR-α ligand bezafibrate was obtained from Sigma Chemical Co. (St. Louis. Mo.). These PPAR ligands were dissolved in minute quantities of DMSO (final concentration 0.005%). PPAR ligands were added 6 hours prior to induction of hypoxia. […]

[2] = system: Egr-1/DNA binding; assay: Electrophoretic mobility gel shift assay on nuclear extracts from NR8383 cells; format: cell-based, rat; conditions: nuclear extracts of NR8383 cells 30 minutes after hypoxia; 1 or 20 μM 15-d-PGJ2, 20 μM troglitazone, 20 μM bezafibrate; FIG. 1c
Experimental: (§1) Cell culture and induction of hypoxia. A rat alveolar macrophage cell line (NR8383) was obtained from the ATCC (Manassas, Va.), and cells were grown to 70% confluence in Ham's F-12K medium containing 15% heat-inactivated fetal bovine serum. Cells were made quiescent by serum starvation (0.2%, fetal bovine serum) for 24 hours. The PPAR-γ ligands were obtained from the following sources: troglitazone was provided by Sankyo Pharmaceutical Co. (Tokyo, Japan); and 15-d-PGJ2 was purchased from Cayman Chemical Co. (Ann Arbor, Mich.). The PPAR-α ligand bezafibrate was obtained from Sigma Chemical Co. (St. Louis. Mo.). These PPAR ligands were dissolved in minute quantities of DMSO (final concentration 0.005%). PPAR ligands were added 6 hours prior to induction of hypoxia. Using an environmental chamber described previously (Yan, 1999), cells were subjected to 30 minutes hypoxia (pO2 in the medium ˜12–14 torr. This time was chosen because it has previously been shown that this is the time of maximal Egr-1 expression in hypoxic macrophages. Cells subjected to hypoxia were placed in medium pre-equilibrated with the hypoxic gas mixture just prior to placement in the environmental chamber. Thus, cultures were immersed immediately in the oxygen-deprived environment at the time of medium change, coinciding with time of placement in the chamber.
Electrophoretic mobility gel shift assay. […]

[3] = system: Egr-1 protein; assay: Egr-1 protein expression by Western blotting in hypoxic mononuclear phagocytes; format: cell-based, rat; conditions: ligand added 6 hours before 30 minutes hypoxia; Western blot, FIG. 1b
Experimental: as §1
Western blotting. […]

[4] = system: Egr-1; assay: Hypoxia-driven Egr-1 induction in macrophages (data not shown); format: cell-based
Experimental: as §1

[5] = Murine survival following lung ischemia/reperfusion injury; format: in vivo, mouse; conditions: 1 hour after circulatory exclusion of nonischemic lung
Experimental: Murine ischemia/reperfusion model. C57BL6/J mice (male, 12–15 weeks old) purchased from Jackson Laboratories (Bar Harbor, Me.) were used in these experiments according to a protocol approved by the Institutional Animal Care and Use Committee at Columbia University, in accordance with guidelines of the American Association for the Accreditation of Laboratory Animal Care.
Troglitazone was administered to mice by oral gavage (0.1 mL/mouse) for 7 days at doses of 0, 5, and 100 mg/kg/day, prepared as a suspension in 0.5% methylcellulose solution. For control experiments, methylcellulose solution alone was used for gavage (these experiments are referred to as “vehicle” controls). The ischemia/reperfusion stress followed on day 8. […] Survival was measured 1 hour after circulatory exclusion of the nonoperated lung (by ligating the right hilum), which was performed after both the ischemic and reperfusion (3 hours) periods had elapsed. […]
Statistics. […] Survival was estimated by the Kaplan-Meier method, with differences in survival determined by log-rank analysis. Values are expressed as mean±standard error of the mean (SEM), with differences considered statistically significant when p<0.05.

SMILES	Egr-1 mRNA levels after hypoxia [1]	gel shift band associated with Egr-1/DNA binding [2]	Egr-1 protein levels after hypoxia [3]	hypoxia-driven Egr-1 induction in macrophages [4]	potency of inhibition of hypoxia-induced Egr-1 expression compared with troglitazone ([4]; macrophages, parallel study)	survival relative to vehicle-treated mice ([5]; vehicle 10% survival) [times]	survival ([5]; 1 hour ischemia, 3 hours reperfusion, FIG. 4f) [%]
CCCCCC=CC=C1C(=O)C=C[C@@H]1CC=CCCCC(=O)O [15-d-PGJ2, 15-deoxy-Δ^12,14-prostaglandinJ2]	significantly reduced	virtually abrogated	significantly inhibited	inhibited hypoxia-induced expression of Egr-1	equal potency as troglitazone	–	–
Cc1c(C)c2c(c(C)c1O)CCC(C)(COc1ccc(CC3SC(=O)NC3=O)cc1)O2 (stereo not shown) [troglitazone]	–	–	–	–	–	4	40
